Source: article PMC8175309, “Translational CNS Steady-State Drug Disposition Model in Rats, Monkeys, and Humans for Quantitative Prediction of Brain-to-Plasma and Cerebrospinal Fluid-to-Plasma Unbound Concentration Ratios” (The AAPS Journal, 2021)
Where two headings read alike, the source gives them in different places.

What was measured:
[1] = cited from earlier work
[2] = cited from earlier work; remark: listed apart in the source
MDR1 = MDR1 (Homo sapiens, UniProt P08183); test: in vitro; settings: dog, MDCK-MDR1, pH 7.4
Sequence of MDR1 (P08183 whole entry): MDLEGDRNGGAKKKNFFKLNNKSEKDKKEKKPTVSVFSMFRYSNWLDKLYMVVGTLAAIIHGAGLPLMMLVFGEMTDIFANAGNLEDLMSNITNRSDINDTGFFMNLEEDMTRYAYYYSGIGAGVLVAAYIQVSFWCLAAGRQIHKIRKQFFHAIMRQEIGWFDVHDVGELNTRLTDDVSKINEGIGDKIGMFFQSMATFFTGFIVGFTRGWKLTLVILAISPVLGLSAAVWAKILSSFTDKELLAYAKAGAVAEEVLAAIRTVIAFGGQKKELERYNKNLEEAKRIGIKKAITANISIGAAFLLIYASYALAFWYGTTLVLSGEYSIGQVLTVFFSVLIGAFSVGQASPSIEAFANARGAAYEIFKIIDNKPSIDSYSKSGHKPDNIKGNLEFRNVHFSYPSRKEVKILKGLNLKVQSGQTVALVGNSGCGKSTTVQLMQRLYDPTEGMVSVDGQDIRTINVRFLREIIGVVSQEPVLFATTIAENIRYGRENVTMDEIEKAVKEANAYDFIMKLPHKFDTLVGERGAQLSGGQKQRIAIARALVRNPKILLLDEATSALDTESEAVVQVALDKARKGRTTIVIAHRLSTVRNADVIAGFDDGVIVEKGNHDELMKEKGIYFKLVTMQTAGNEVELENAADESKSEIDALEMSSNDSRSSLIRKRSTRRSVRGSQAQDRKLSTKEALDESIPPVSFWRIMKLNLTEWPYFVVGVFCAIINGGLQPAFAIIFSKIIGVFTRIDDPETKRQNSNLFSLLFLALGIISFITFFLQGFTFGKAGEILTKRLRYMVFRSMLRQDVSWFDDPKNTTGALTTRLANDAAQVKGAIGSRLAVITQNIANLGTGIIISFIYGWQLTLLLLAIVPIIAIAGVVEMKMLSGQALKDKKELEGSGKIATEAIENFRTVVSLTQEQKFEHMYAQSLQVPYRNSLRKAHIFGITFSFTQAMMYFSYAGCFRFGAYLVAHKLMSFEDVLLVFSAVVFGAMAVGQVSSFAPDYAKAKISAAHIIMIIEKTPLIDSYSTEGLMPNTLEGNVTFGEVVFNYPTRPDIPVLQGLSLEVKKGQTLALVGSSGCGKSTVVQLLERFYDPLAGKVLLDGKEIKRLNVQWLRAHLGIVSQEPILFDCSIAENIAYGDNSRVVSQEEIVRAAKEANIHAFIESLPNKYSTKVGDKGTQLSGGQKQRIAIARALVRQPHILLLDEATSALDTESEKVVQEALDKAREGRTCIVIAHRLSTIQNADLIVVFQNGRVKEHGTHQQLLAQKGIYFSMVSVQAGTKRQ
Description: (§1) To the compounds available internally, in vitro efflux ratios for MDR1 and BCRP were determined by the following procedure (Supplemental Table 2). Test compound stock solutions in dimethyl sulfoxide (DMSO) were diluted in transport buffer (Hanks’ balanced salt solution (HBSS) with 10 mM HEPES, pH 7.4) to a concentration of 1 μM (DMSO < 1%) and applied to the apical or basolateral side of a cell monolayer derived from Madin-Darby canine kidney (MDCK)-MDR1 and MDCK-BCRP cells. Permeation of the test compounds from apical to basolateral (A to B) direction or B to A direction was measured in duplicate. The plate was incubated for 1 h in a CO2 incubator at 37±1°C with 5% CO2 at saturated humidity without shaking. In addition, the efflux ratio of each compound was also determined. Test and reference compounds were quantified by LC-MS/MS analysis based on the peak area ratio of analyte/internal standard.
(§2) The apparent permeability coefficient Papp (cm/s) was calculated by using Eq. 1: 1 Papp=dCr/dt×Vr/A×C0 where dCr/dt is the cumulative concentration of the compound in the receiver chamber as a function of time (μM/s); Vr is the volume of the solution in the receiver chamber (0.075 mL on the apical side, 0.25 mL on the basolateral side); A is the surface area for transport, i.e., 0.0804 cm^2 for the area of the monolayer; and C0 is the initial concentration (μM) in the donor chamber.
(§3) The efflux ratio was calculated using Eq. 2: 2 Efflux ratio=Papp,BtoA/Papp,AtoB

BCRP = target: T1, BCRP (Homo sapiens, UniProt Q9UNQ0); test: Transcellular transport across MDCK-BCRP cell monolayers (efflux ratio); settings: dog, pH 7.4
T1 sequence (Q9UNQ0 1-655): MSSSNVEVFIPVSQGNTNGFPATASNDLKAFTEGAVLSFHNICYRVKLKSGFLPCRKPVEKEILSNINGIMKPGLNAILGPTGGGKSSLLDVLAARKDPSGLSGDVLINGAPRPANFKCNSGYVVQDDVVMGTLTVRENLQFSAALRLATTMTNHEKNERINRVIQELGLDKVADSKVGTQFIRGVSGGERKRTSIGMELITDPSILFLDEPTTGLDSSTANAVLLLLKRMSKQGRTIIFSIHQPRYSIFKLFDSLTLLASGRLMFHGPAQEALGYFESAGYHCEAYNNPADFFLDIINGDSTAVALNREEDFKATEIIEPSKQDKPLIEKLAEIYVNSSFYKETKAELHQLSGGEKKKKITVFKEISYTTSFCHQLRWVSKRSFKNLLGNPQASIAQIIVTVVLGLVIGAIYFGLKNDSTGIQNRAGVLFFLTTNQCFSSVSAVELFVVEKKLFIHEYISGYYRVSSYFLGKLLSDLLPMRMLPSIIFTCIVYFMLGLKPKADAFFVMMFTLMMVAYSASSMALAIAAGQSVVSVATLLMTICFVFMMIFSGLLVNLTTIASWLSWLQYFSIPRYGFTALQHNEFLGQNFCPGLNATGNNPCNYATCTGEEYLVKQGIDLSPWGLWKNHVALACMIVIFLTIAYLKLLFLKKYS
Description: as §1, §2, §3

[3] = Observed Kp,uu,brain and Kp,uu,CSF in monkeys; settings: for Kp,uu,CSF Monkey: lumbar CSF; for Kp,uu,CSF Monkey / Kp,uu,brain Monkey: *1 data internally obtained; for Kp uu at 6 h: cynomolgus monkey, intravenous
Description: Monkey experiments were conducted internally or at the Drug Safety Research Laboratories in Shin Nippon Biomedical Laboratories via consignment to Axcelead Drug Discovery Partners. […] Detailed dosage regimen for each compound is summarized in Supplemental Table 3. […] Each cassette was assigned to a separate group of monkeys. The vehicle was saline or a mixture of dimethylacetamide and 1,3-butanediol (1:1, v/v). At the end of the 6-h infusion or 1 h after intravenous bolus administration, the monkeys were anesthetized, and whole blood, CSF, and whole brain were collected. Blood was collected using the anticoagulant, heparin sodium, and immediately centrifuged; the plasma was transferred to polypropylene tubes. Then, ketamine hydrochloride (50 mg/mL; 0.2 mL/kg; 10 mg/kg) was intramuscularly administered. CSF was collected after lumbar puncture using a spinal needle (22–25G) and a syringe pre-wetted with 10% CHAPS solution to prevent adsorption of compounds to all the equipment during pretreatment. CSF samples were immediately centrifuged, and the supernatant layers were transferred to polypropylene tubes. […] After collecting the cerebellum, hippocampus, and cerebral cortex from the whole brain, these were washed with cold saline, weighed, and homogenized immediately in 4 volumes of ice-cold 100 mmol/L sodium phosphate buffer. All samples were stored at –80°C until analysis by LC-MS/MS. Each sample (50 μL) was mixed with the working solution (the mixture of dimethyl sulfoxide and acetonitrile (2:8, v/v)), and protein was precipitated by the addition of 150 μL acetonitrile containing the internal standards (5 ng/mL alprenolol and diclofenac). After centrifugation at 5,250 rpm and 4°C for 5 min, the supernatant (150 μL) was transferred to a polypropylene 96-well plate (Corning; Corning, NY, USA) and completely evaporated under a gentle stream of N2. The residue was reconstituted in dilution solution (mobile phase A/B (7:3, v/v)), and the supernatant was analyzed by LC-MS/MS.
Each sample (50 μL) was mixed with the working solution (the mixture of dimethyl sulfoxide and acetonitrile (2:8, v/v)), and the protein was precipitated by adding 150 μL acetonitrile containing internal standards (5 ng/mL alprenolol and diclofenac). After centrifugation at 5250 rpm and 4°C for 5 min, the supernatant (150 μL) was transferred to a polypropylene 96-well plate (Corning) and completely evaporated under a gentle stream of N2. The residue was reconstituted in mobile phase A/B (7:3, v/v)), and the supernatant was analyzed by LC-MS/MS. API5000 and QTRAP5500 (AB SCIEX, Framingham, MA, USA) equipped with Ultra-Fast Liquid Chromatography (Shimadzu, Kyoto, Japan) were used for determination of drug concentrations. Reversed-phase chromatography was performed using Shim-pack XR ODS (2.2 μm, 2.0×30 mm). Mobile phase A consisted of 10 mM ammonium formate with 0.2% formic acid, and mobile phase B contained acetonitrile with 0.2% formic acid. […] The mass spectrometer was operated in the positive ionization mode with multiple reaction monitoring (MRM). The MRM parameters (Q1 ion, Q3 ion, DP, EP, CE, and CXP) for monitoring the compounds are shown in Supplemental Table 4. Data acquisition and processing were performed using Analyst 1.6.2 (AB SCIEX, Framingham, MA, USA).
To perform correlation analyses between the observed Kp,uu,brain and Kp,uu,CSF, and the model-based prediction of Kp,uu,brain and Kp,uu,CSF, data from literature information were integrated into the internally obtained data for these assessments (Supplemental Table 2) ([17],[22]–[24],[27]–[33]). When only the total concentrations in plasma, CSF, and brain were available, the total concentration ratio in plasma to CSF or brain (Kp,CSF or Kp,brain, respectively) was estimated, followed by calculation of Kp,uu,CSF or Kp,uu,brain based on Eqs.

| Compound | Kp,uu,CSF Rat ([1]; *4 ref Friden et al. (21)) | Kp,uu,brain Rat ([1]; *4 ref Friden et al. (21)) | Kp,uu,CSF Human ([2]; *4 ref Friden et al. (21)) | other results |
| --- | --- | --- | --- | --- |
| CC(C)Nc1cccnc1N1CCN(C(=O)c2cc3cc(NS(C)(=O)=O)ccc3[nH]2)CC1 [Delavirdine] | 0.051 | 0.043 | 0.23 | – |
| CN(C)CCC=C1c2ccccc2CCc2ccccc21 [Amitriptyline] | 0.17 | – | 0.18 | – |
| CSc1ccc2c(c1)N(CCC1CCCCN1C)c1ccccc1S2 (stereo not drawn) [Thioridazine] | 0.21 | 0.45 | 1.4 | Kp,uu,brain Rat ([1]; *3 ref Summerfield et al. (25)): 1.425 |
| COc1ccc(C2CNC(=O)C2)cc1OC1CCCC1 (stereo not drawn) [Rolipram] | – | – | – | Kp,uu,brain Human ([2]; *3 ref Summerfield et al. (25)): 1.00 |
| COc1cc([C@@H]2c3cc4c(cc3[C@@H](O[C@@H]3O[C@@H]5CO[C@@H](C)O[C@H]5[C@H](O)[C@H]3O)[C@H]3COC(=O)[C@H]23)OCO4)cc(OC)c1O [Etoposide] | – | – | – | efflux ratio at 1 h, 1 μM (MDR1): 6.1; efflux ratio at 1 h, 1 μM (BCRP): 3.7 |
| CO[C@@]1(NC(=O)C(C(=O)O)c2ccc(O)cc2)C(=O)N2C(C(=O)O)=C(CSc3nnnn3C)CO[C@@H]21 (stereo partly drawn) [Moxalactam] | 0.02 | 0.019 | 0.41 | – |
| CC(C)(C)NC(=O)[C@@H]1C[C@@H]2CCCC[C@@H]2CN1C[C@@H](O)[C@H](Cc1ccccc1)NC(=O)[C@H](CC(N)=O)NC(=O)c1ccc2ccccc2n1 [Saquinavir] | – | 0.055 | 0.096 | – |
| CCC(C(N)=O)(C(N)=O)c1ccccc1 [Ethyl-phenylmalonamide] | 1.4 | 1.250 | – | – |
| O=C1NC(=O)C(c2ccccc2)(c2ccccc2)N1 [Phenytoin] | – | – | – | Kp,uu,brain Rat ([1]; *3 ref Summerfield et al. (25)): 0.316; Kp,uu,brain Rat ([1]; *7 ref Kodaira et al. (20)): 0.447; Kp,uu,CSF Rat ([1]; in vivo): 0.396; Kp,uu,brain Human ([2]; *3 ref Summerfield et al. (25)): 0.59 |
| O=C(O)c1ccccc1O [Salicylic acid] | 0.16 | 0.190 | 0.19 | – |
| O=C(O)C[C@H](O)C[C@H](O)/C=C/c1c(C2CC2)nc2ccccc2c1-c1ccc(F)cc1 [Pitavastatin] | – | – | – | Kp,uu,CSF Monkey [3]: 0.129; Kp,uu,brain Monkey [3]: 0.242 |
| COc1ccc2c3c1O[C@H]1[C@@H](O)C=C[C@H]4[C@@H](C2)N(C)CC[C@@]341 [Codeine] | – | – | – | Kp,uu,CSF Rat ([1]; in vivo): 0.54; Kp,uu,brain Rat ([1]; in vivo): 0.89; Kp,uu,CSF Human ([2]; in vivo): 0.79 |
| CCn1cc(C(=O)O)c(=O)c2cc(F)c(N3CCNCC3)cc21 [Norfloxacin] | 0.018 | 0.028 | 0.11 | – |
| O=c1n(CCCN2CCN(c3cccc(Cl)c3)CC2)nc2ccccn12 [Trazodone] | – | – | – | Kp,uu,brain Rat ([1]; *3 ref Summerfield et al. (25)): 0.957; Kp,uu,brain Human ([2]; *3 ref Summerfield et al. (25)): 0.93 |
| CN1CC[C@]23c4c5ccc(O)c4O[C@H]2[C@@H](O[C@@H]2O[C@H](C(=O)O)[C@@H](O)[C@H](O)[C@H]2O)C=C[C@H]3[C@H]1C5 [M6G] | 0.017 | 0.008 | 0.1 | – |
| CN(C)CCCC1(c2ccc(F)cc2)OCc2cc(C#N)ccc21 (stereo not drawn) [Citalopram] | – | – | – | Kp,uu,brain Rat ([1]; *3 ref Summerfield et al. (25)): 0.623; Kp,uu,CSF Rat ([1]; *7 ref Kodaira et al. (20)): 0.667; Kp,uu,brain Rat ([1]; *7 ref Kodaira et al. (20)): 0.494; Kp,uu,brain Human ([2]; *3 ref Summerfield et al. (25)): 0.347 |
| C[C@H]1COc2c(N3CCN(C)CC3)c(F)cc3c(=O)c(C(=O)O)cn1c23 [Levofloxacin] | 0.19 | 0.120 | 0.18 | – |
| COc1cccc(C2(O)CCCCC2CN(C)C)c1 (stereo not drawn) [Tramadol] | – | – | – | Kp,uu,CSF Rat ([1]; in vivo): 0.71; Kp,uu,brain Rat ([1]; in vivo): 1.460; Kp,uu,CSF Human ([2]; in vivo): 1.44 |
| CO/N=C(\C(=O)N[C@@H]1C(=O)N2C(C(=O)O)=C(COC(C)=O)CS[C@H]12)c1csc(N)n1 [Cefotaxime] | – | – | 0.17 | Kp,uu,brain Human ([2]; *4 ref Friden et al. (21)): 0.007 |
| CN1CC[C@]23c4c5ccc(O[C@@H]6O[C@H](C(=O)O)[C@@H](O)[C@H](O)[C@H]6O)c4O[C@H]2[C@@H](O)C=C[C@H]3[C@H]1C5 [M3G] | 0.049 | 0.011 | 0.081 | – |
| O=C1CN(/N=C/c2ccc([N+](=O)[O-])o2)C(=O)N1 [Nitrofurantoin] | 0.0099 | 0.011 | – | – |
| Cc1c(O)cccc1C(=O)N[C@@H](CSc1ccccc1)[C@H](O)CN1C[C@H]2CCCC[C@H]2C[C@H]1C(=O)NC(C)(C)C [Nelfinavir] | 0.067 | 0.019 | 0.045 | Kp,uu,CSF Monkey [3]: 0.640; Kp,uu,brain Monkey [3]: 0.008 |
| CN1CC[C@]23c4c5ccc(O)c4O[C@H]2C(=O)CC[C@@]3(O)[C@H]1C5 [Oxymorphone] | 0.91 | 0.790 | – | – |
| CN1CCN2c3ncccc3Cc3ccccc3C2C1 (stereo not drawn) [Mirtazapine] | – | – | – | Kp,uu,brain Rat ([1]; *3 ref Summerfield et al. (25)): 1.611; Kp,uu,brain Human ([2]; *3 ref Summerfield et al. (25)): 0.79 |
| CNCCC(Oc1ccc(C(F)(F)F)cc1)c1ccccc1 (stereo not drawn) [Fluoxetine] | – | – | – | Kp,uu,brain Rat ([1]; *3 ref Summerfield et al. (25)): 2.143; Kp,uu,brain Human ([2]; *3 ref Summerfield et al. (25)): 0.53 |
| NCC1(CC(=O)O)CCCCC1 [Gabapentin] | 0.067 | 0.140 | 0.16 | Kp,uu,brain Human ([2]; *4 ref Friden et al. (21)): 0.16 |
| NCC(CC(=O)O)c1ccc(Cl)cc1 (stereo not drawn) [Baclofen] | 0.027 | 0.02 | 0.17 | Kp uu at 6 h ([3]; CSF (lumbar) / plasma): 0.03; Kp uu at 6 h ([3]; brain / plasma): 0.037 |
| C=CCOc1ccccc1OCC(O)CNC(C)C (stereo not drawn) [Oxprenolol] | 0.1 | 0.200 | – | – |
